The text below walks through data of PubChem BioAssay (NCI).

What all share (assay): NCI tumour cell line growth inhibition, 48 h
The test system of assay [1] is A549 NSCLC.
In assay [2] the test system is BT-549 breast.
For assay [3], the system named is OVCAR-8 ovarian.
The test system of assay [4] is SF-539 CNS.
The subject of assay [5] is DU-145 prostate.
The subject of assay [6] is SF-268 CNS.
The test system of assay [7] is HCT-15 colon.
Assay [8] deals with M14 melanoma.
Assay [9] deals with SK-OV-3 ovarian.
The test system of assay [10] is NCI-H23 lung.

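Where inhibition never reached the appropriate level, the endpoint shown equals the highest concentration tested. Otherwise, values were interpolated linearly from a five-concentration, 48-hour dose response in 96-well plates. GI50 marks 50% less growth. TGI marks complete inhibition of growth.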 Bounds are passed on as bounds.

`COc1ccc2c(c1)C(=O)c1c-2c(OCCCN(C)C)nc2cc(Br)ccc12`: the GI50 is 3.52 µM in assay [1]; 13.5 µM in assay [2]; 2.63 µM in assay [3]; 1.69 µM in assay [4]; 5.91 µM in [5]; 2.5 µM in [6]. Further, the GI50 in [7] is 4.75 µM; in assay [8], 14.8 µM; in assay [9] it was 7.28 µM; in assay [10], 11.3 µM. Further, the TGI stood at 11.4 µM in [1]; 28 µM in assay [2]; 6.95 µM in assay [3]; 3.16 µM in assay [4]; 18.9 µM in assay [5]; 10.4 µM in assay [6]. Also, the TGI in [7] worked out at 18.3 µM; in assay [8], 29 µM; in [9], 22.9 µM; in assay [10], 24.6 µM.
Consider `CN(C)CCC(=O)Nc1ccc(-n2cc(-c3cccc(NC(=S)Nc4cccc(-c5cn(-c6ccc(NC(=O)CCN(C)C)cc6)nn5)c4)c3)nn2)cc1`, for which the GI50 in [1] was 27.8 µM; in [2], 22.9 µM; in assay [3], 42.3 µM; in assay [4], 28.1 µM; in assay [5], greater than 100 µM; in [6], 24.5 µM. The GI50 is greater than 100 µM in [7], 49.5 µM in assay [8], greater than 100 µM in assay [9] and 57.2 µM in assay [10]. The TGI in [1] is greater than 100 µM; in assay [2], 66.4 µM; in [3] it was greater than 100 µM; in assay [4], 78.2 µM; in assay [5], greater than 100 µM; in [6] it was 75.6 µM. Further, the TGI in assay [7], in assay [8], in assay [9] and in assay [10] was greater than 100 µM each time.
Turning to `COc1c2ccoc2nc2c(OC)c(OCC(O)C(C)(C)O)ccc12` (stereo not given), the TGI in assay [1], in [2], in assay [3], in assay [4], in [5] and in assay [6] was greater than 100 µM each time. Further, the TGI in [7], in assay [8], in assay [9] and in assay [10] was greater than 100 µM throughout.
With `CC(C)(C)C[C@H]1N[C@@H](C(=O)NC2CCC(O)CC2)[C@H](c2cccc(Cl)c2F)[C@@]12C(=O)Nc1cc(Cl)ccc12` (stereo not given in full), the GI50 is 0.778 µM in [1]; 3.8 µM in assay [2]; 14.8 µM in [3]; 3.12 µM in assay [4]; 11.8 µM in assay [5]; 12 µM in assay [6]. The GI50 in assay [7] is 3.92 µM; in assay [8] it was 4.05 µM; in assay [9], 11.2 µM; in [10], 11.1 µM. In addition, the TGI in assay [1] was 16.4 µM; in assay [2], 14.1 µM; in assay [3], 39.4 µM; in assay [4], 11.5 µM; in assay [5], 24.3 µM; in [6], 25.8 µM. In addition, the TGI amounted to 18.2 µM in assay [7], 17.3 µM in assay [8], 23.8 µM in assay [9] and 29.2 µM in [10].
On to `C/C(=N/NC(=S)Nc1ccccc1)c1nc2ccc(Cl)cc2[nH]1`, for which the GI50 was 0.217 µM in assay [1]; 0.135 µM in assay [2]; 0.16 µM in [3]; 0.129 µM in assay [4]; 0.0821 µM in assay [5]; 0.0747 µM in assay [6]. Also, the GI50 is 0.0656 µM in assay [7], 0.0763 µM in assay [8], 0.246 µM in [9] and 0.406 µM in assay [10]. In addition, the TGI came out at 1.41 µM in assay [1]; 0.924 µM in assay [2]; 1.15 µM in assay [3]; 0.686 µM in assay [4]; 0.645 µM in assay [5]; 0.858 µM in assay [6]. Further, the TGI in assay [7] is 6.9 µM; in [8], 0.26 µM; in assay [9], 1.39 µM; in [10], 1.52 µM.
As to `N#C/C(=C\c1ccc2[nH]ccc2c1)C(=O)NCCCCNC(=O)/C(C#N)=C/c1ccc2[nH]ccc2c1`, the TGI is greater than 100 µM in assay [1]; greater than 10 µM in assay [2]; greater than 31.6 µM in [3]; greater than 31.6 µM in [4]; greater than 10 µM in assay [5]; greater than 31.6 µM in assay [6]. Also, the TGI in assay [7], in [8], in assay [9] and in assay [10] was greater than 31.6 µM each time.
Take `Cn1c(COC(=O)NCCc2ccccn2)nc2c(N3CCOCC3)nc(Cl)nc21`: the GI50 is 1.85 µM in assay [1]; 1.71 µM in [2]; 2.38 µM in assay [3]; 1.48 µM in assay [4]; 1.59 µM in assay [5]; 1.52 µM in assay [6]. The GI50 in [7] is 1.14 µM; in [8], 1.53 µM; in assay [9], 12 µM; in assay [10] it was 2 µM. The TGI in assay [1] worked out at 5.96 µM; in [2], 4.06 µM; in [3], 10.1 µM; in assay [4], 2.84 µM; in assay [5], 3.11 µM; in assay [6], 3.11 µM. Also, the TGI in assay [7] came out at 3.2 µM; in [8], 3.34 µM; in [9], 24.3 µM; in assay [10] it was 4.7 µM.
In the case of `C[C@@]1(F)[C@H](O)[C@@H](CO)O[C@H]1n1ccc(=O)[nH]c1=O`, the GI50 in assay [1], in [2], in assay [3], in [4], in assay [5] and in [6] was greater than 100 µM in each case. For the same compound, the GI50 in [7], in assay [8], in assay [9] and in assay [10] was greater than 100 µM in each case. Also, the TGI in assay [1], in assay [2], in assay [3], in assay [4], in assay [5] and in assay [6] was greater than 100 µM in each case. In addition, the TGI in assay [7], in assay [8], in [9] and in assay [10] was greater than 100 µM in each case.
With `O=C1C(=O)c2c(nc3ccc(C(F)(F)F)cn23)-c2ccccc21`, the GI50 in [1] was 0.513 µM; in [2], 0.186 µM; in assay [3] it was 0.253 µM; in assay [4], 0.169 µM; in assay [5], 0.185 µM; in [6], 0.224 µM. The GI50 in assay [7] was 0.202 µM; in assay [8], 0.18 µM; in [9], 0.551 µM; in [10], 0.175 µM. The TGI was 1.23 µM in assay [1]; 0.442 µM in assay [2]; 0.651 µM in assay [3]; 0.313 µM in assay [4]; 0.345 µM in assay [5]; 0.609 µM in [6]. For the same compound, the TGI was found to be 0.656 µM in assay [7], 0.329 µM in assay [8], 1.12 µM in [9] and 0.477 µM in [10].
For the compound `CC1(C)CC(C)(C)c2cc(NC(=S)Nc3ccc([N+](=O)[O-])cc3)ccc2S1`, the GI50 is 12.3 µM in [1]; 13.2 µM in assay [2]; 16.6 µM in assay [3]; 10.8 µM in assay [4]; 13.1 µM in assay [5]; 26.5 µM in assay [6]. For the same compound, the GI50 in [7] is 12.6 µM; in assay [8] it was 17.9 µM; in [9] it was 16.5 µM; in assay [10] it was 12.2 µM. The TGI is 52.7 µM in assay [1]; 28.2 µM in assay [2]; 60.4 µM in assay [3]; 22.7 µM in assay [4]; 34.6 µM in [5]; greater than 53.7 µM in assay [6]. Besides, the TGI is 45.8 µM in assay [7], greater than 53.9 µM in assay [8], 54.8 µM in [9] and 50.2 µM in [10].
Regarding `C=C1C(=O)O[C@@H]2/C=C(/C)[C@@H](OC(C)=O)C/C=C(\C)C(O)[C@@H](OC(=O)/C(C)=C\C)C12` (stereo not given in full), the TGI was greater than 100 µM in assay [1]; 44.3 µM in assay [2]; 75.3 µM in [3]; greater than 100 µM in assay [4]; greater than 100 µM in [5]; greater than 100 µM in [6]. Also, the TGI in [7] was 30.3 µM; in assay [8] it was greater than 100 µM; in assay [9] it was greater than 100 µM; in assay [10] it was greater than 100 µM.
Consider `COc1ccc2[nH]c(C(=O)N3CCN(C(=O)OCc4ccc5c(Cl)cc(Cl)c(O)c5n4)CC3)cc2c1`, for which the GI50 in assay [1] was 1.55 µM; in assay [2] it was 1.04 µM; in [3], 1.01 µM; in assay [4], 1.31 µM; in assay [5] it was 1.19 µM; in assay [6] it was 1.49 µM. Besides, the GI50 in assay [7] was 0.368 µM; in assay [8], 1.15 µM; in assay [9], 5.36 µM; in [10], 1.7 µM. For the same compound, the TGI in [1] was determined as 3.39 µM; in assay [2], 2.34 µM; in assay [3], 2.42 µM; in assay [4], 2.58 µM; in assay [5], 2.53 µM; in [6], 3.02 µM. For the same compound, the TGI in [7] was 1.59 µM; in assay [8], 2.6 µM; in assay [9], 17.6 µM; in [10], 3.47 µM.
`Nc1cc2c3c(cccc3c1)C(=O)N(CCN1CCCC1)C2=O`: the GI50 was 1.79 µM in [1]; 6.49 µM in [2]; 3.69 µM in assay [3]; 3.87 µM in assay [4]; 2.01 µM in assay [5]; 4.62 µM in [6]. Also, the GI50 in [7] is 2.02 µM; in [8], 3.92 µM; in [9], 2.16 µM; in assay [10], 3.33 µM. Besides, the TGI in [1] is greater than 100 µM; in [2], 29.8 µM; in [3], greater than 100 µM; in assay [4] it was 18.2 µM; in [5], 37.4 µM; in assay [6], 30.5 µM. Besides, the TGI in [7] is greater than 100 µM; in assay [8], 21.7 µM; in assay [9], 22.7 µM; in assay [10], 22.8 µM.
In the case of `CSc1nc(Nc2cccc(NC(=O)CCl)c2)c(C#N)c(-c2cccc([N+](=O)[O-])c2)n1`, the GI50 in assay [1] is 16.6 µM; in [2], 1.79 µM; in assay [3], 2.39 µM; in assay [4], 0.216 µM; in [5], 2.25 µM; in assay [6], 2.24 µM. Besides, the GI50 was 1.66 µM in [7], 2.01 µM in assay [8], 4.36 µM in [9] and 1.7 µM in assay [10]. Further, the TGI was 49.7 µM in [1]; 5.68 µM in assay [2]; 9.37 µM in assay [3]; 0.528 µM in assay [4]; 4.57 µM in [5]; 5.72 µM in assay [6]. Moreover, the TGI in assay [7] was 4.1 µM; in assay [8] it was 6.08 µM; in [9], 17.3 µM; in assay [10] it was 4.35 µM.
Consider `COc1cc(C2CC(c3ccc(Nc4nc(NCCO)nc(NCCO)n4)cc3)=NN2c2cc(Cl)cc(Cl)c2)cc(OC)c1OC` (stereo not given), for which the GI50 in [1] was 1.38 µM; in assay [2], 1.67 µM; in assay [3], 2.01 µM; in [4] it was 1.2 µM; in [5], 1.84 µM; in assay [6], 1.52 µM. For the same compound, the GI50 in assay [7] is 1.5 µM; in assay [8], 1.58 µM; in [9] it was 11.1 µM; in [10], 2.02 µM. In addition, the TGI came to 3.22 µM in [1]; 4.54 µM in assay [2]; 5.86 µM in [3]; 2.57 µM in [4]; 4.11 µM in assay [5]; 4.09 µM in assay [6]. For the same compound, the TGI in [7] was determined as 3.13 µM; in [8], 3.24 µM; in [9], 23.1 µM; in [10], 4.97 µM.
Regarding `COc1cccc2c1C(=O)c1c(O)c3c(c(O)c1C2=O)C[C@@](O)(C(C)=O)CC3OC1CC(OC2CC(N)C(O)C(C)O2)C(O)C(C)O1` (stereo not given in full), the TGI is greater than 100 µM in [1]; greater than 100 µM in assay [2]; greater than 100 µM in assay [3]; greater than 76.8 µM in [4]; greater than 100 µM in assay [5]; greater than 100 µM in [6]. Besides, the TGI in [7], in assay [8], in assay [9] and in [10] was greater than 100 µM throughout.
